Among the data in PubChem BioAssay AID330 (DTP/NCI, 2004) are T/C values, retold here.

The experiment has as its system P388 leukemia ip, CD2F1 mice, survival T/C. Description: NCI In Vivo Anticancer Drug Screen. Data for tumor model P388 Leukemia (intraperitoneal) in CD2F1 (CDF1) mice. To be noted: endpoint: median survival time, higher = longer survival. Put shortly: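 Mice carrying the transplanted tumor received test compound or vehicle. Survival was recorded in each group, and the value is the treated-group measurement divided by that of the vehicle-treated control group.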

Setting [1] is: dose: 6.25 mg/kg/injection, schedule: Q01DX005 (ip), vehicle: Klucel (hydroxypropylcellulose) (HPC).
Setting [2] is: dose: 12.5 mg/kg/injection, schedule: Q01DX005 (ip), vehicle: Klucel (hydroxypropylcellulose) (HPC).
Setting [3] is: dose: 25.0 mg/kg/injection, schedule: Q01DX005 (ip), vehicle: Klucel (hydroxypropylcellulose) (HPC).
The mark [4] stands for this setting: dose: 50.0 mg/kg/injection, schedule: Q01DX005 (ip), vehicle: Klucel (hydroxypropylcellulose) (HPC).
Where [5] appears, read: dose: 50.0 mg/kg/injection, schedule: Q01DX009 (ip), vehicle: saline with Tween-80.
The mark [6] stands for this setting: dose: 100.0 mg/kg/injection, schedule: Q01DX009 (ip), vehicle: saline with Tween-80.
The mark [7] stands for this setting: dose: 240.0 mg/kg/injection, schedule: Q01DX005 (ip), vehicle: saline with Tween-80.
Where [8] appears, read: dose: 100.0 mg/kg/injection, schedule: Q04DX003 (ip), vehicle: saline with Tween-80.
[9] abbreviates: dose: 50.0 mg/kg/injection, schedule: Q01DX009 (ip), vehicle: Klucel (hydroxypropylcellulose) (HPC).
Setting [10] is: dose: 100.0 mg/kg/injection, schedule: Q01DX009 (ip), vehicle: Klucel (hydroxypropylcellulose) (HPC).
Where [11] appears, read: dose: 60.0 mg/kg/injection, schedule: Q01DX005 (ip), vehicle: saline with Tween-80.
[12] abbreviates: dose: 120.0 mg/kg/injection, schedule: Q01DX005 (ip), vehicle: saline with Tween-80.

“And” between values parts separate entries of the source, which are not always exact repeats. Equal entries are not always repeated. Inconclusive results and toxic doses are left out.

Take `CC1CC12C(=O)C1=C(C(=O)C2O)C2(C)CCCC(C)(COC=O)C2C(O)C1OC=O` (stereo not given): the T/C runs as follows: under setting [1], 105 % of control; under setting [2], 105 % of control; under setting [3], 115 % of control; under setting [4], 101 % of control.
Take `COc1ccc(C2=C(Cl)C(=O)N(c3ccccc3OC)C(=O)C2(Cl)Cl)cc1`: the T/C runs as follows: (dose: 100.0 mg/kg/injection, schedule: Q04DX003 (ip), vehicle: Klucel (hydroxypropylcellulose) (HPC)) 107 % of control; (dose: 200.0 mg/kg/injection, schedule: Q04DX003 (ip), vehicle: Klucel (hydroxypropylcellulose) (HPC)) 103 % of control; (dose: 400.0 mg/kg/injection, schedule: Q04DX003 (ip), vehicle: Klucel (hydroxypropylcellulose) (HPC)) 98 % of control.
For the compound `CCS/C(C#N)=C(/Br)c1ccc(OC)cc1`, the T/C runs as follows: under setting [5], 98 % of control; under setting [6], 100 % of control.
With `CC(=O)OCC12C(OC(=O)c3ccccc3)C(=O)C3C(OC(C)=O)C1(OC3(C)C)C(C)(O)CC(OC(C)=O)C2OC(=O)/C=C/c1ccccc1` (stereo not given) (tested in a mixture with another compound), the T/C under setting [3] is 100 % of control; the T/C under setting [4] was 100 % of control; the T/C (dose: 100.0 mg/kg/injection, schedule: Q01DX005 (ip), vehicle: Klucel (hydroxypropylcellulose) (HPC)) is 102 % of control; the T/C (dose: 200.0 mg/kg/injection, schedule: Q01DX005 (ip), vehicle: Klucel (hydroxypropylcellulose) (HPC)) was 102 % of control.
For `C=CCn1c(=O)n(CC=C)c(=O)n(CCOC(=O)COc2ccc(Cl)cc2Cl)c1=O`, the T/C by setting is: (dose: 50.0 mg/kg/injection, schedule: Q01DX009 (ip), vehicle: saline) 108 % of control; (dose: 100.0 mg/kg/injection, schedule: Q01DX009 (ip), vehicle: saline) 112 % of control; (dose: 200.0 mg/kg/injection, schedule: Q01DX009 (ip), vehicle: saline) 94 % of control.
Regarding `COc1cc2cc3cc(-c4ccc(Cl)cc4)c(N4CCCCC4)nc3nc2cc1OC`, the T/C is, setting by setting: (dose: 3.75 mg/kg/injection, schedule: Q01DX005 (ip), vehicle: saline with Tween-80) 92 % of control; (dose: 7.5 mg/kg/injection, schedule: Q01DX005 (ip), vehicle: saline with Tween-80) 87 % of control; (dose: 30.0 mg/kg/injection, schedule: Q01DX005 (ip), vehicle: saline with Tween-80) 86 % of control; under setting [7], 91 % of control.
For `CCOc1ccc2c(O)csc2c1`, the T/C by setting is: under setting [8], 100 % of control; (dose: 200.0 mg/kg/injection, schedule: Q04DX003 (ip), vehicle: saline with Tween-80) 100 % of control; (dose: 400.0 mg/kg/injection, schedule: Q04DX003 (ip), vehicle: saline with Tween-80) 90 % of control.
`CC[C@@]1(O)C[C@H](OC2CC(N(C)C)C(O)C(C)O2)c2c(cc3c(c2O)C(=O)c2c(O)ccc(O)c2C3=O)[C@H]1C(=O)OC` (stereo not given in full): the T/C (dose: 1.56 mg/kg/injection, schedule: Q01DX009 (ip), vehicle: other) was 110 % of control; the T/C (dose: 3.13 mg/kg/injection, schedule: Q01DX009 (ip), vehicle: other) is 123 % of control; the T/C (dose: 6.25 mg/kg/injection, schedule: Q01DX009 (ip), vehicle: other) is 118 % of control.
With `CCN(CC)C(=S)n1c(=S)nc(N(CC)CC)sc1=S`, the T/C is, setting by setting: under setting [1], 109 % of control; under setting [2], 98 % of control; under setting [3], 108 % of control.
`CN(C[CH2][Sn]([CH3])([CH3])[Cl])C[CH2][Sn]([CH3])([CH3])[Cl]`: the T/C (dose: 3.75 mg/kg/injection, schedule: Q01DX005 (ip), vehicle: saline) is 102 % of control and the T/C (dose: 7.5 mg/kg/injection, schedule: Q01DX005 (ip), vehicle: saline) was 121 % of control.
`CC(=O)Nc1ccc(Sc2ncc([N+](=O)[O-])s2)cc1`: the T/C runs as follows: (dose: 12.5 mg/kg/injection, schedule: Q01DX009 (ip), vehicle: Klucel (hydroxypropylcellulose) (HPC)) 100 % of control; (dose: 25.0 mg/kg/injection, schedule: Q01DX009 (ip), vehicle: Klucel (hydroxypropylcellulose) (HPC)) 116 % of control; under setting [9], 100 % of control and 108 % of control; under setting [10], 102 % of control.
Consider `CN1C(=O)c2ccccc2Cc2c(NCc3ccccc3)ncnc21`, for which the T/C was 108 % of control under setting [5]; 104 % of control under setting [6]; 100 % of control (dose: 200.0 mg/kg/injection, schedule: Q01DX009 (ip), vehicle: saline with Tween-80).
On to `CN(C)c1ccc(Nc2c3ccccc3nc3ccccc23)cc1`, for which the T/C is, setting by setting: (dose: 12.5 mg/kg/injection, schedule: Q04DX002 (ip), vehicle: distilled water + Tween-80) 113 % of control; (dose: 13.0 mg/kg/injection, schedule: Q04DX003 (ip), vehicle: saline with Tween-80) 100 % of control and 103 % of control; (dose: 21.6 mg/kg/injection, schedule: Q04DX003 (ip), vehicle: saline with Tween-80) 107 % of control and 111 % of control; (dose: 25.0 mg/kg/injection, schedule: Q04DX002 (ip), vehicle: distilled water + Tween-80) 150 % of control and 156 % of control; (dose: 25.9 mg/kg/injection, schedule: Q04DX003 (ip), vehicle: saline) 109 % of control; (dose: 36.0 mg/kg/injection, schedule: Q04DX003 (ip), vehicle: saline with Tween-80) 110 % of control and 111 % of control. In addition, the T/C reads like this: (dose: 50.0 mg/kg/injection, schedule: Q04DX002 (ip), vehicle: distilled water + Tween-80) 185 % of control and 196 % of control; under setting [8], 157 % of control; (dose: 120.0 mg/kg/injection, schedule: Q04DX003 (ip), vehicle: saline) 179 % of control.
As for `CC(C(=O)O)c1cn(Cc2ccccc2)c2ccccc12` (stereo not given), the T/C is 100 % of control under setting [11], 102 % of control under setting [12] and 96 % of control under setting [7].
With `C=C1C(=O)OC2C=CCC12` (stereo not given), the T/C was 99 % of control (dose: 3.13 mg/kg/injection, schedule: Q01DX009 (ip), vehicle: distilled water + Tween-80); 99 % of control (dose: 6.25 mg/kg/injection, schedule: Q01DX009 (ip), vehicle: distilled water + Tween-80); 100 % of control (dose: 12.5 mg/kg/injection, schedule: Q01DX009 (ip), vehicle: distilled water + Tween-80); 107 % of control (dose: 25.0 mg/kg/injection, schedule: Q01DX009 (ip), vehicle: distilled water + Tween-80); 107 % of control (dose: 50.0 mg/kg/injection, schedule: Q01DX009 (ip), vehicle: distilled water + Tween-80).
On to `Cc1cc(SSc2cc(C)nc(N)n2)nc(N)n1`, for which the T/C is 86 % of control (dose: 100.0 mg/kg/injection, schedule: Q01DX001 (ip), vehicle: saline with Tween-80) and 86 % of control (dose: 200.0 mg/kg/injection, schedule: Q01DX001 (ip), vehicle: saline with Tween-80).
`Cc1nnc(C)s1`: the T/C by setting is: under setting [9], 102 % of control and 106 % of control and 98 % of control; under setting [10], 114 % of control and 96 % of control and 97 % of control; (dose: 200.0 mg/kg/injection, schedule: Q01DX009 (ip), vehicle: Klucel (hydroxypropylcellulose) (HPC)) 101 % of control and 106 % of control; (dose: 600.0 mg/kg/injection, schedule: Q01DX009 (ip), vehicle: Klucel (hydroxypropylcellulose) (HPC)) 106 % of control.
As to `CN(C)C1C(=O)C(C(N)=O)=C(O)C2(O)C(=O)C3=C(O)c4c(O)cccc4C(C)(O)C3C(O)C12.[Cl][Sb]([Cl])[Cl]` (stereo not given), the T/C is 113 % of control (dose: 50.0 mg/kg/injection, schedule: Q01DX005 (ip), vehicle: saline with Tween-80) and 99 % of control (dose: 100.0 mg/kg/injection, schedule: Q01DX005 (ip), vehicle: saline with Tween-80).
With `S=C(Nc1ccccc1)Nc1ncccn1`, the T/C is 111 % of control under setting [9] and 99 % of control under setting [10].
With `COc1ccc(N=c2nc3n4c(c(Br)cc(Br)c4n2)NC(C(Br)(Br)Br)=N3)cc1`, the T/C by setting is: under setting [11], 90 % of control; under setting [12], 92 % of control; under setting [7], 100 % of control.
Turning to `COc1ccc(/C=C/C(=O)C(C)(C)Br)cc1`, the T/C reads like this: under setting [11], 101 % of control; under setting [12], 101 % of control; under setting [7], 103 % of control.
Regarding `Clc1nc2ccccc2nc1CI`, the T/C is, setting by setting: (dose: 2.66 mg/kg/injection, schedule: Q01DX009 (ip), vehicle: other) 119 % of control; (dose: 4.0 mg/kg/injection, schedule: Q01DX009 (ip), vehicle: other) 119 % of control; (dose: 6.0 mg/kg/injection, schedule: Q01DX009 (ip), vehicle: other) 119 % of control; (dose: 9.0 mg/kg/injection, schedule: Q01DX009 (ip), vehicle: other) 114 % of control.
